Results: patent US20230404972A1, “INHIBITION OF CASPASE PATHWAY AS A TREATMENT FOR LYSOSOMAL STORAGE DISORDERS” (Lysosomal and Rare Disorders Research and Treatment Center, …, priority 2020, published 2023)

Columns and labels:
CCL18 = CCL18 ELISA of PBMC cell culture supernatant; assay type: cell-based, human; details: PBMCs from LSD patients, 1 μM, 6 hr, with vs without treatment
IL-1 beta = IL-1 beta ELISA of PBMC cell culture supernatant; assay type: cell-based, human; details: PBMCs from LSD patients, 1 uM, 6 hr, relative to untreated PBMCs
Protocol: (§1) PBMCs are extracted from 3-5 ml peripheral blood using Ficoll-Paque (GE health care). 2-4 ml of whole blood is diluted 1:2 using Phosphate buffered saline (PBS) containing 2% fetal bovine serum (FBS) and overlayed onto Ficoll solution in 15 ml leucosep tube. The tubes are centrifuged at 2000 g for 10 minutes with no brakes. The layer containing PBMCs is transferred into a fresh 15 ml tube and washed with PBS+2% FBS. The cells are then resuspended in RPMI+10% FBS. The cells were then counted using heniocytometer and plated into 96 well plates and set at 37° C. incubator with 5% CO2. […]
(§2) Caspase-1, IL-1 beta and IL-18 were quantified as a measure of capase-1 activity. CCL18 and chitotriosidase were measured as to indicate macrophage activation and reflect clinical outcomes. ELISAs were performed as per manufacturer's protocols to quantify the following cytokines: 1) Caspase 1 (Therrnofisher Scientific, Waltham, MA, USA), 2) IL-1 beta, 3) IL-18 (Abcam, Cambridge, MA, USA), 4) CCL-18 cytokines-1 (Themofisher scientific, Waltham, MA, USA). […]
(§3) Caspase-1 mediated inflammasome cleaves pro-IL-1 beta and pro-IL-18 into active forms II-1 beta and IL-18 which are secreted from the cells. […] Relative decrease for each sample was calculated as relative to untreated PBMCs (FIG. 3A and 3B). […]

IL-18 = IL-18 ELISA of PBMC cell culture supernatant; assay type: cell-based, human; details: PBMCs from LSD patients, 1 uM, 6 hr, relative to untreated PBMCs
Protocol: as §1, §2, §3

Chitotriosidase = Chitotriosidase assay (4-Methylumbelliferone chitotrioside substrate) of PBMC cell culture supernatant; assay type: cell-based, human; details: PBMCs from LSD patients, 1 μM, 6 hr, with vs without treatment
Caspase 1 = biological target: T1, Caspase 1 (Homo sapiens, UniProt P29466); experiment: Caspase-Glo 1 inflammasome assay in PBMCs from LSD patients; assay type: cell-based; details: 1 μM, 6 hr, vs untreated PBMCs
T1 construct: Caspase 1 activity within the PBMCs; endogenous in cells; host or cells: primary PBMCs from LSD patients
T1 sequence (P29466 120-297 limits assumed): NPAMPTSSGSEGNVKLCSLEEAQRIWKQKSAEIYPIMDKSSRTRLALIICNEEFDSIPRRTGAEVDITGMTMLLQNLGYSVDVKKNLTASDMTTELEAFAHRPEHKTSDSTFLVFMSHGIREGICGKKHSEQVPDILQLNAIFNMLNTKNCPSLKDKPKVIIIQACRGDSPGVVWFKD
T1 sequence (P29466 317-404 limits assumed): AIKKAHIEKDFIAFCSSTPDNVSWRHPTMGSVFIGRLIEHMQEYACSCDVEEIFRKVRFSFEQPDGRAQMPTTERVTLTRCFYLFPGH
Protocol: PBMCs are extracted from 3-5 ml peripheral blood using Ficoll-Paque (GE health care). 2-4 ml of whole blood is diluted 1:2 using Phosphate buffered saline (PBS) containing 2% fetal bovine serum (FBS) and overlayed onto Ficoll solution in 15 ml leucosep tube. The tubes are centrifuged at 2000 g for 10 minutes with no brakes. The layer containing PBMCs is transferred into a fresh 15 ml tube and washed with PBS+2% FBS. The cells are then resuspended in RPMI+10% FBS. The cells were then counted using heniocytometer and plated into 96 well plates and set at 37° C. incubator with 5% CO2.
The pan-caspase inhibitor, Emricasan (Sigma-Aldrich, Inc., St. Louis, MO, USA), was added to the PBMCs in 96-well plates to a final concentration of 1 μM. After 6 hr of Emricasan treatment, the cells were divided into two groups and used for 1) measurement of Caspase 1 activity within the PBMCs using Caspase-Glo 1 inflammasome assay (Promega, Madison, WI, USA), and 2) the supernatant was collected after centrifuging at 3000 rpm for 5 min to perform ELISA assays for cytokines: IL-1 beta and IL-18 as well as macrophage activation markers: Chitotriosidase and CCL18. […]
as §3

SMILES: C[C@H](NC(=O)C(=O)Nc1ccccc1C(C)(C)C)C(=O)N[C@@H](CC(=O)O)C(=O)COc1c(F)c(F)cc(F)c1F [Emricasan, (3S)-3-({N-[{[2-(2-Methyl-2-propanyl)phenyl]amino}(oxo)acetyl]alanyl}amino)-4-oxo-5-(2,3,5,6-tetrafluorophenoxy) pentanoic acid]
- production of CCL18 (macrophage activation biomarker) in cell culture medium (CCL18): significant decrease
- secreted IL-1 beta in the cell culture supernatant (IL-1 beta): significant decrease
- secreted IL-18 in the cell culture supernatant (IL-18): significant decrease
- production of chitotriosidase (macrophage activation biomarker) in cell culture medium (Chitotriosidase): significant decrease
- Caspase 1 activity within the PBMCs (Caspase 1): reduced
